Here are results for two compounds from publication PMC6204917, “Inhibitory effects of cannabidiol on voltage-dependent sodium currents” (The Journal of Biological Chemistry, 2018).

Format in all cases: cell-based
The target in test [1] is T1, hNav1.6 (Homo sapiens, UniProt Q9UQD0, N1768D).
T1 construct: gene SCN8A; full-length alpha-subunit in HEK-293 cells with human beta1; with Sodium channel regulatory subunit beta-1
The test is described as follows: automated whole-cell voltage clamp.

Another test addresses T2, mNav1.6 (Mus musculus, UniProt Q9WTU3).
T2 construct: gene Scn8a; full-length mouse alpha-subunit in HEK-293 cells with human beta1; with Sodium channel regulatory subunit beta-1 (human)
The test can be described thus: automated whole-cell voltage clamp (Qube-384).

In another test the target is T3, hNav1.5 (Homo sapiens, UniProt Q14524).
T3 construct: gene SCN5A; full-length alpha-subunit in HEK-293 cells with human beta1; with Sodium channel regulatory subunit beta-1
The test can be described thus: automated whole-cell voltage clamp (Qube-384).

The target in test [2] is T4, hNav1.1 (Homo sapiens, UniProt P35498).
T4 construct: gene SCN1A; full-length alpha-subunit in HEK-293 cells with human beta1; with Sodium channel regulatory subunit beta-1
The test is described as follows: automated whole-cell voltage clamp.

In another test the target is T5, NaChBac (Halalkalibacterium halodurans, UniProt Q9KCR8).
T5 construct: gene BH1501; homotetrameric bacterial channel expressed in HEK-293 cells (construct not described)
T5 sequence (Q9KCR8 1-274): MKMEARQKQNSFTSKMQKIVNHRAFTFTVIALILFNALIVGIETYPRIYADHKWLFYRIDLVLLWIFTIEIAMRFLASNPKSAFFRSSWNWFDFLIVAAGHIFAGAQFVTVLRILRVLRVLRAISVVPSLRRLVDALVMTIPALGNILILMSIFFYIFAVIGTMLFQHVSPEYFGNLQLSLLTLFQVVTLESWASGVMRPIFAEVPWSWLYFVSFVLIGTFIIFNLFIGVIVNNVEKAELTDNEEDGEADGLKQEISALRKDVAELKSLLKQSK
The test is described as follows: whole-cell voltage clamp.

Another test addresses T6, hNav1.3 (Homo sapiens, UniProt Q9NY46).
T6 construct: gene SCN3A; full-length alpha-subunit in HEK-293 cells with human beta1; with Sodium channel regulatory subunit beta-1
The test is described as follows: automated whole-cell voltage clamp (Qube-384).

The target in test [3] is T7, hNav1.6 (Homo sapiens, UniProt Q9UQD0).
T7 construct: gene SCN8A; full-length alpha-subunit in HEK-293 cells with human beta1; with Sodium channel regulatory subunit beta-1
The test can be described thus: automated whole-cell voltage clamp.

Test [4] concerns the target T8, hNav1.1 (Homo sapiens, UniProt P35498, F1774A).
T8 construct: gene SCN1A; full-length alpha-subunit in HEK-293 cells with human beta1; with Sodium channel regulatory subunit beta-1
The test is described as follows: automated whole-cell voltage clamp.

Another test has as its target T9, hNav1.4 (Homo sapiens, UniProt P35499).
T9 construct: gene SCN4A; full-length alpha-subunit in HEK-293 cells with human beta1; with Sodium channel regulatory subunit beta-1
The test can be described thus: automated whole-cell voltage clamp (Qube-384).

Another test has as its target T10, hNav1.2 (Homo sapiens, UniProt Q99250).
T10 construct: gene SCN2A; full-length alpha-subunit in HEK-293 cells with human beta1; with Sodium channel regulatory subunit beta-1
The test can be described thus: manual whole-cell patch clamp.

Usually IC50 stands for the concentration that gives 50% inhibition.

On to `C=C(C)[C@@H]1CCC(C)=C[C@H]1c1c(O)cc(CCCCC)cc1O` [cannabidiol], for which the IC50 came out at 10 ± 0.7 µM against hNav1.6 [1]; 2.4 ± 0.1 µM against mNav1.6; 3.8 ± 0.2 µM against hNav1.5; 2.5 ± 0.2 µM against hNav1.1 [2]; 1.5 ± 0.2 µM on NaChBac; 3.3 ± 0.1 µM at hNav1.3. Moreover, the IC50 stood at 3 ± 0.1 µM against hNav1.6 [3], 4.8 ± 0.2 µM at hNav1.1 [4], 1.9 ± 0.1 µM against hNav1.4 and 1.3 ± 0.1 µM on hNav1.2.

`CCCCNc1ccc(C(=O)OCCN(C)C)cc1` [tetracaine]: the IC50 was 1.6 ± 0.1 µM on hNav1.1 [2] and around 44.1 µM on hNav1.1 [4].
